From paper PMC12881670, “Investigation into ligand selectivity and bias at the formyl peptide receptor family” (The Journal of Pharmacology and Experimental Therapeutics, 2025)
pEC50, pIC50: −log10 of the molar value. One block for each molecule: values may come before it. Where a SMILES comes first, the peptide text is derived from it. Where no end group is shown, it is not given here. [ ]: non-standard residue; d: D form. The star is where a group is joined. Palmitoyl = CCCCCCCCCCCCCCCC(=O)*; 5/6‑FAM = fluorescein

Tests used:
[1] = molecular target: T1, Mm_Fpr2 (Mus musculus, UniProt O88536); assay: ERK1/2 phosphorylation by Western blotting; type: cell-based
T1 construct: expressed in transfected cells
T1 sequence (O88536 1-351): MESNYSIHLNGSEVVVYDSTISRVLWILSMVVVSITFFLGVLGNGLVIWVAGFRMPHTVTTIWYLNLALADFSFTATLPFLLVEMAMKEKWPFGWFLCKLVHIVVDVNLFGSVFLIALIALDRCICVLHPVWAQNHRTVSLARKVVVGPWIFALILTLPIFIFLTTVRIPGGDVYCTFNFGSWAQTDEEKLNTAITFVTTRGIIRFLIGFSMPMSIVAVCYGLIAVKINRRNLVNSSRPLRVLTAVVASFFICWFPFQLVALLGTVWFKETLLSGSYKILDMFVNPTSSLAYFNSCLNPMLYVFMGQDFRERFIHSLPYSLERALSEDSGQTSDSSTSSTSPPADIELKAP
Description: (§1) ERK phosphorylation was detected by Western blotting as previously described.[30] Briefly, HEK293 cells stably expressing FLAG-tagged FPRs were plated into 12-well culture plates until 90% confluent. On the day of the experiment, culture media was replaced with serum-free Dulbecco’s modified Eagle’s medium and incubated for 2 hours before stimulation with the indicated compounds. After 7 minutes, the media was removed and stimulation terminated by the addition of 100 μl sample buffer (0.5% SDS, Tris (pH 6.8), glycerol, at >90 °C).
(§2) All data were analyzed using GraphPad Prism using the nonlinear regression log(agonist) versus response (3 parameters) function for all assays, except binding, which was analyzed using the One site-FitlogIC50 function. Bias calculations were carried out following IUPHAR guidelines as described,[27]^,[37] and data were presented as the Δ Activity ratio (Log[EmaxB/EC50B])-(Log[EmaxA/EC50A]).

[2] = molecular target: T2, Hs_FPR2 (Homo sapiens, UniProt P25090); assay: ERK1/2 phosphorylation by Western blotting; type: cell-based
T2 construct: expressed in transfected cells
T2 sequence (P25090 1-351): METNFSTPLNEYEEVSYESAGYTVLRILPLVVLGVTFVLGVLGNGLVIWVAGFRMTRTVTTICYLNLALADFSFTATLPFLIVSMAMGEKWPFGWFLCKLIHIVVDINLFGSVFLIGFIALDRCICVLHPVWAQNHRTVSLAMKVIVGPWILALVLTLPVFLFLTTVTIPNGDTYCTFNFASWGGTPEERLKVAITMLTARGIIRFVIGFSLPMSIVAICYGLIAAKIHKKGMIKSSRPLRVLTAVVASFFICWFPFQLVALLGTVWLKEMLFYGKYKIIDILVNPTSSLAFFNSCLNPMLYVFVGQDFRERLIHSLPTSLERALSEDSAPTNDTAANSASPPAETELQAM
Description: as §1, §2

[3] = molecular target: T1, Mm_Fpr2; assay: BRET receptor-RLuc8 interaction with Venus-mGsi; type: cell-based
Description: (§3) BRET1 assays to measure FPR interaction with Venus-mGsi and Arrestin 3-yellow fluorescent protein (YFP) were performed as previously described.[31]^,[32] Briefly, all FPRs C-terminally fused to Renilla Luciferase (donor, RLuc8) were transiently transfected along with either Venus-mGsi or YFP-Arrestin 3 (acceptor) at a ratio of 1:4. 24 hours post transfection, cells were replated into white-walled, 96-well plates and cultured for a further 24–48 hours. On the day of experimentation, growth media was aspirated and replaced with 80 μl Hanks Buffered Saline Solution and equilibrated for 30 minutes. Coelenterazine h was added to each well to a final concentration of 5 μM for 5 minutes before the addition of each compound, and the plate was incubated for a further 10 minutes at 37 °C before being read on a ClarioStar Plus, with luminescence measured at 480/20 nm (donor) and 530/20 (acceptor). The BRET ratio (acceptor/donor) was determined, and the background (untreated) subtracted to give the N-BRET value.
as §2

[4] = molecular target: T2, Hs_FPR2; assay: BRET receptor-RLuc8 interaction with Venus-mGsi; type: cell-based
Description: as §3, §2

[5] = molecular target: T1, Mm_Fpr2; assay: Internalization of FLAG-tagged receptors by flow cytometry; type: cell-based; set-up: Emax: dose or concentration left out as unconfirmed
Description: (§4) Internalization of FPRs was measured by flow cytometry.[30] Briefly, cells were incubated with Alexa Fluor 657 conjugated M1 antiflag antibody (Sigma-Aldrich Cat# F3040, RRID:AB_439712) for 30 minutes at 37 °C to label surface receptors. Cells were then incubated with the indicated concentration of ligand before washing in PBS/0.04% EDTA to remove any remaining surface antibody. Remaining fluorescence was then measured using flow cytometry on either a BD FACScalibur or Attune, recording 5000 gated events. […] As a control, some samples were left untreated, and “strip only” was measured as a readout of constitutive endocytosis, and this value was subtracted from the data. Vehicle control (0.1% DMSO) had no effect on internalization of receptors.
as §2

[6] = molecular target: T1, Mm_Fpr2; assay: BRET receptor-RLuc8 interaction with Arrestin 3-YFP; type: cell-based
Description: as §3, §2

[7] = molecular target: T2, Hs_FPR2; assay: as above; type: cell-based
Description: as §3, §2

[8] = molecular target: T1, Mm_Fpr2; assay: Competition binding of fluorescent WKYMVm, flow cytometry; details: for Max Comp (%): maximum proportion of competition with 10 nM K(5/6-FAM)-WKYMVm
Description: (§5) Mean cell fluorescence was then measured for 5000 cells by flow cytometry using either a BD FACScalibur or BD Attune.
as §2

[9] = molecular target: T2, Hs_FPR2; assay: as above; details: for Max Comp (%): maximum proportion of competition with 10 nM K(5/6-FAM)-WKYMVm, mean, ND = no competition observed
Description: as §5, §2

[10] = system: formyl peptide receptor family (Hs_FPR1, Hs_FPR2, Mm_Fpr1, Mm_Fpr2); assay: Summary of main findings: receptor subtype selectivity and ligand bias across all readouts; set-up: species or system human and mouse
Text: To determine ligand bias, a reference ligand is required, that is, “balanced” for the pathways tested.[37] […] We then used measurements of the activity ratio (Log (Emax/EC50)) for each receptor, ligand, and pathway in an attempt to observe any ligand bias (Fig. 6).

[11] = molecular target: T3, Mm_Fpr1 (Mus musculus, UniProt P33766); assay: ERK1/2 phosphorylation by Western blotting; type: cell-based
T3 construct: expressed in transfected cells
T3 sequence (P33766 1-364): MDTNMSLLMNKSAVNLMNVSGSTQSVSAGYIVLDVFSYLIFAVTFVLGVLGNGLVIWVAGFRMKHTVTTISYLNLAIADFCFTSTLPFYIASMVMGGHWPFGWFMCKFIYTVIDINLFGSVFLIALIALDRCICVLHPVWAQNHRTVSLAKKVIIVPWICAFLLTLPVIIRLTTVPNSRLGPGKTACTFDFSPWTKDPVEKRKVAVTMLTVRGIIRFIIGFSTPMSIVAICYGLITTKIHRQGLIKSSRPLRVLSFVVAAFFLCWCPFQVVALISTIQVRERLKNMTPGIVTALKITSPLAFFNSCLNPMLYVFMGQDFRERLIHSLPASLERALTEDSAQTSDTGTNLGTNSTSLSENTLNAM
Description: as §1, §2

[12] = molecular target: T3, Mm_Fpr1; assay: BRET receptor-RLuc8 interaction with Venus-mGsi; type: cell-based
Description: as §3, §2

[13] = molecular target: T3, Mm_Fpr1; assay: Internalization of FLAG-tagged receptors by flow cytometry; type: cell-based; set-up: Emax: dose or concentration left out as unconfirmed
Description: as §4, §2

[14] = molecular target: T3, Mm_Fpr1; assay: BRET receptor-RLuc8 interaction with Arrestin 3-YFP; type: cell-based
Description: as §3, §2

[15] = molecular target: T3, Mm_Fpr1; assay: Competition binding of fluorescent WKYMVm, flow cytometry; details: for Max Comp (%): maximum proportion of competition with 10 nM K(5/6-FAM)-WKYMVm
Description: as §5, §2

[16] = molecular target: T2, Hs_FPR2; assay: Internalization of FLAG-tagged receptors by flow cytometry; type: cell-based; set-up: Emax: dose or concentration left out as unconfirmed
Description: Internalization of FPRs was measured by flow cytometry.[30] Briefly, cells were incubated with Alexa Fluor 657 conjugated M1 antiflag antibody (Sigma-Aldrich Cat# F3040, RRID:AB_439712) for 30 minutes at 37 °C to label surface receptors. Cells were then incubated with the indicated concentration of ligand before washing in PBS/0.04% EDTA to remove any remaining surface antibody. Remaining fluorescence was then measured using flow cytometry on either a BD FACScalibur or Attune, recording 5000 gated events. […] As a control, some samples were left untreated, and “strip only” was measured as a readout of constitutive endocytosis, and this value was subtracted from the data.
as §2

[17] = log of EC50, phosphorylation of ERK1/2, HEK293 stable cells, mean, ND = no pERK signal detected
[18] = mean, ND = no competition observed
[19] = phospho-ERK, % of 1 μM WKYMVm, mean, ND = no pERK signal detected
[20] = log of EC50, mGsi BRET, HEK293 transient, 10 min, mean, ND = no interaction detected
[21] = mGsi BRET, % of response to 1 μM WKYMVm, mean, ND = no interaction detected
[22] = Arrestin 3 BRET, % of response to 1 μM WKYMVm, mean, ND = no interaction detected
[23] = log of IC50, competition with 10 nM K(5/6-FAM)-WKYMVm, HEK293 stable cells, on ice 90 min, mean, ND = no competition observed

Emax [1]: 141% | pEC50 [1, 17]: 7.27 | Emax [2]: 80.8% | pEC50 [2, 17]: 7.47 | pEC50 [3]: 6.78 | Emax [3]: 24.2% | pEC50 [4]: 6.78 | Emax [4]: 19.4% | Gi interaction, % of that seen with WKYMVm ([4]; only detected at 1 and 10 μM): 20% | Emax [5]: 12.3% | pEC50 [6]: 6.58 | Emax [6]: 33.4% | Emax [7]: 25.5% | EC50 ([7]; read-out: Log EC50 (converted)): 282 nM | pIC50 [8]: 5.38 | Max Comp (%) [8, 18]: 100% | pIC50 [9]: 5.27 | Max Comp (%) [9]: 100%
Molecule: CCCCCCCCCCCCCCCC(=O)N[C@@H](CCCCN)C(=O)N[C@H](C(=O)N[C@@H](Cc1c[nH]cn1)C(=O)N[C@@H](CCCCN)C(=O)N[C@@H](CCCCN)C(=O)NCC(=O)N[C@@H](CCSC)C(=O)N[C@H](C(=O)N[C@@H](CCCCN)C(=O)N[C@@H](CO)C(=O)O)[C@@H](C)CC)[C@@H](C)CC [F2Pal10] (Palmitoyl-KIHKKGMIKS-OH)

Bias ([10]; summary grade of ligand bias relative to WKYMVm, key not given): No | Notes ([10]; summary of main findings, in words): Partial/weak only | Log EC50 (M) [11, 17]: −7.589 M | Emax (%) [11, 19]: 78.28% | Log EC50 (M) [1, 17]: −6.775 M | Emax (%) [1, 19]: 147.8% | Log EC50 (M) [12, 20]: −7.09 M | Emax (%) [12, 21]: 12.62% | Log EC50 (M) [3, 20]: −6.19 M | Emax (%) [3, 21]: 73.16% | Emax (%), internalization, Mean ([13]; % of internalization to WKYMVm (1 mM in legend, 1 μM in text), Mm_Fpr1, 30 minutes, ND denotes no internalization measured): 95.95% | Log EC50 (M), internalization, Mean ([13]; Log EC50, HEK293 stably expressing FLAG-Mm_Fpr1, ligand 30 minutes, ND denotes no internalization measured): −6.155 M | agonist-induced internalization (words) ([13]; Mm_Fpr1, 30 min, relative to 1 μM WKYMVm): partial agonists | Emax (%), internalization, Mean ([5]; % of internalization to WKYMVm (1 mM in legend, 1 μM in text), Mm_Fpr2, 30 minutes): 42.90% | Log EC50 (M), internalization, Mean ([5]; Log EC50, HEK293 stably expressing FLAG-Mm_Fpr2, ligand 30 minutes): −7.063 M | agonist-induced internalization (words) ([5]; Mm_Fpr2, 30 min, relative to 1 μM WKYMVm): partial agonists | Emax (%) [14, 22]: 39.42% | Emax (%) [6, 22]: 73.06% | Log EC50 (M) ([6]; log of EC50, Arrestin 3 BRET, HEK293 transient, 10 min, mean, ND = no interaction detected): −6.20 M | Log IC50 (M) [15, 23]: −5.926 M | Max Comp (%) [15, 18]: 61.39% | Log IC50 (M) [8, 23]: −6.16 M | Max Comp (%) [8, 18]: 29.56%
Molecule: CC(C)c1c(NC(=O)Nc2ccc(Cl)cc2)c(=O)n(-c2ccccc2)n1C [TC-FPR43]

Molecule: CSCC[C@H](NC=O)C(=O)N[C@@H](CC(C)C)C(=O)N[C@@H](Cc1ccccc1)C(=O)O [fMLF, fMet-Leu-Phe]
Emax [11]: 72.7% | pEC50 [11, 17]: 5.64 | Emax [2]: 40.2% | pEC50 [12]: 4.93 | Emax [12]: 59.3% | pEC50 [3]: 4.58 | Emax [3]: 13.2% | Emax [4]: 61.7% | Emax [16]: 0.343% | pEC50 [13]: 5.35 | Emax [13]: 92.5% | Emax [5]: 54.4% | pEC50 [14]: 4.68 | Emax [14]: 83.4% | pEC50 [6]: 4.71 | Emax [6]: 22.7% | pIC50 [15]: 5.50 | Max Comp (%) [15, 18]: 45.65% | Max Comp (%) [9]: 3.4%

Kd, saturable binding ([9]; hFPR2, initial studies (not shown)): low nM range
Molecule: K(5/6-FAM)-WKYMVm-NH2 (K(5/6‑FAM)WKYMV[dM]-NH2)
